From a melting point compilation (Tetko et al.; mined from patent text by program, amines drawn as free bases though some values may be those of a salt)

First: COc1c(Br)c(-c2ccc(C(C)(C)C)s2)cc2oc(=O)c(C)c(C)c12
Second: Cc1cc(CCC(=O)OC(C)(C)C)nc(-c2nc(=O)c3ccccc3s2)c1
The melting point of the first is higher: 170 °C for the first, 168 to 169 °C for the second.

First: CC(=Cc1ccccc1)c1ccc2c(c1)C(C)(C)CC(O)C2(C)C (stereo not drawn)
Second: CC1(C)CCC(C)(C)c2cc(-c3cc4ccc(C(=O)O)cc4o3)ccc21
The melting point of the first is lower: 102 to 103 °C for the first, 280 °C for the second.

First: CCOC(=O)c1c(N=Cc2ccc(-c3cccs3)s2)sc(N=Cc2ccc(-c3cccs3)s2)c1C(=O)OCC
Second: CCOC(=O)c1ncc2[nH]c3cccc(Oc4ccc(Cl)cc4)c3c2c1COC
The melting point of the first is lower: 130 to 132 °C for the first, 207 °C for the second.

Compared with CCN(CC)CC1CCCCN1CCNC(=O)N1c2ccccc2NC(=O)c2cccnc21 (stereo not drawn), COc1cc(OCCCN2CCN(c3nn(C(=O)c4ccccc4)c4cc(F)ccc34)CC2)ccc1C(C)=O is lower in melting point: 146 to 148 °C for the first, 138 to 140 °C for the second.

First: CCNc1nc(SC)ncc1CNc1cc(OC)cc(OC)c1
Second: COc1cc(OC)cc(N2CCN(C(=S)Nc3cc4c(nc3OC)CCC4)CC2)c1
The melting point of the first is lower: 100 to 105 °C for the first, 169 to 170 °C for the second.

Compared with CC1CCC2(CC1S(=O)(=O)c1ccccc1)OCCO2 (stereo not drawn), CSc1nn2c(O)cc(C)nc2c1S(=O)(=O)c1ccccc1 is higher in melting point: 105 to 106 °C for the first, over 220 °C for the second.

Compared with CC(C)c1ccc(N(Cc2cnn(C)c2)C(=O)C2CCCc3c(O)cccc32)cc1 (stereo not drawn), CC(=O)N(C)C1Cc2ccc(C(=O)Cn3cnc4cc(-c5ccc(Cl)cc5)sc4c3=O)cc2C1 (stereo not drawn) is higher in melting point: 215 °C for the first, 276 °C for the second.

First: C=CC(=O)NC(C)c1ccc(Cl)cc1 (stereo not drawn)
Second: CCOC(=O)C(C)c1ccc(NC(C)=O)cc1 (stereo not drawn)
The melting point of the first is higher: 103 to 104 °C for the first, 94.5 to 95.5 °C for the second.

Compared with O=[N+]([O-])c1ccc(CCc2nccs2)cc1, Cc1ccc(Sc2cncc3sc(C(N)=O)cc23)cc1 is higher in melting point: 92 to 93 °C for the first, 198 to 199 °C for the second.

Compared with Cc1nnc(-c2ccc(C)c(Br)c2)o1, Cc1cc(Br)cc(-c2ccc3c(c2)C(C)(C)OC(=S)N3)c1 is higher in melting point: 91 to 93 °C for the first, 183 to 184 °C for the second.

Compared with CC(C)c1nc(CCOCc2ccccc2)n(C)c1Sc1cc(Cl)cc(Cl)c1, Nc1cc(-c2ccc(CO)o2)nn1Cc1ccccc1 is higher in melting point: 101 to 103 °C for the first, 163 °C for the second.

First: COC(=O)Nc1cc(F)ccc1C(=O)O
Second: CNC(=O)c1ccc(C=CC(=O)OC)cc1
The melting point of the first is lower: 162 °C for the first, 210 °C for the second.

First: CCCC(CO)(CCC)N(OC(C)c1ccccc1)C(C)(C)CO (stereo not drawn)
Second: CCOC(=O)CC(=O)NC(Cc1ccccc1)C(C)=O (stereo not drawn)
The melting point of the first is higher: 88 to 92 °C for the first, 68 to 69 °C for the second.

First: CSc1ccc(C(=O)COc2ccc(F)cc2F)cc1
Second: O=C(O)c1ccc2oc(COCc3ccccc3)cc2c1
The melting point of the first is lower: 70 to 71 °C for the first, 129 to 132 °C for the second.

First: CC(C)(C)OC(=O)c1ncn2c1[C@@H]1CCCN1C(=O)c1c-2cccc1C(F)(F)F
Second: COc1ccc(Cl)cc1N1CCN(CCCNC(=O)c2cccc3c(=O)c(C)c(C(=O)N(C)C)oc23)CC1
The melting point of the first is higher: 201 to 203 °C for the first, 151 to 153 °C for the second.

Compared with COc1ccc(N2C(=O)C(O[Si](C(C)C)(C(C)C)C(C)C)C2c2ccc(C(F)(F)F)cc2)cc1 (stereo not drawn), O=C(Nc1ccc(C(F)(F)F)cc1)O[C@H]1COC(c2ccccc2)=N[C@@H]1c1ccccc1 (racemic) is higher in melting point: 132 to 133 °C for the first, 140 °C for the second.

First: CC1CC(C)CN(CN2C(=O)CN(CC(C)N3CC(=O)N(CN4CC(C)CC(C)C4)C(=O)C3)CC2=O)C1 (stereo not drawn)
Second: CC12CCC(=O)C=C1CCC1C2=CCC2(C)C1CCC2(OC=O)C(=O)CCl (stereo not drawn)
The melting point of the first is lower: 142 to 144 °C for the first, 203 °C for the second.

First: CCNc1c(C(F)(F)F)cc([N+](=O)[O-])c(NN(C)C)c1[N+](=O)[O-]
Second: COC(=O)c1ccc(NN=CC(F)(F)F)cc1S(=O)(=O)NC(=O)Nc1nc(OC)nc(OC)n1
The melting point of the first is lower: 108 to 116 °C for the first, 117 to 119 °C for the second.

First: Cc1ccccc1-c1cn(C)cc(-c2cccc(Cl)c2)c1=O
Second: Cc1ncn(Nc2cccc(Cl)c2)c1-c1cccc(Br)c1
The melting point of the first is higher: 171 to 173 °C for the first, 164 °C for the second.

Compared with CCCC(OC)c1ccc(Cl)c2nc3n(c12)CCCN3c1c(C)cc(Cl)cc1Cl (stereo not drawn), CCN(CC)CCCNc1ncc2cc(-c3c(Cl)cccc3Cl)c(N=CN(C)C)nc2n1 is lower in melting point: 151 to 152 °C for the first, 100 to 104 °C for the second.

Compared with CC(=O)Oc1ccc(CC(CC(=O)O)N2C(=O)c3ccccc3C2=O)cc1 (stereo not drawn), CN(C)C=Cc1[nH]c(=O)ccc1C(=O)c1ccccc1 is higher in melting point: 151 to 154 °C for the first, 202 to 204 °C for the second.

First: Cc1oc(-c2ccco2)nc1COc1ccc(C=O)cn1
Second: COCn1c(=O)n(-c2ccc3c(c2)OCO3)c2ncccc21
The melting point of the first is lower: 139 to 140 °C for the first, 152 to 153 °C for the second.

First: CNC(=O)CC1(C)OCCn2c1c(C)c1ccccc12 (stereo not drawn)
Second: COC(=O)c1ccccc1NC(=O)CN1CCN(C(=O)c2ccc(OC)c(OC)c2)CC1
The melting point of the first is lower: 131 to 133 °C for the first, 168 to 169 °C for the second.

First: Cc1ccc(NC(=O)c2ccc(CN3CCN(CCO)CC3)c(C(F)(F)F)c2)cc1Nc1nccc(-c2cncnc2)n1
Second: Cc1nc2c(N)nc3ccc(OCc4ccccc4)cc3c2n1CCCCNC(=O)c1ccccc1
The melting point of the first is lower: 188 to 192 °C for the first, 244 to 245 °C for the second.
